# Assay results published in publication PMC11012124, “Synthesis of Novel Triazine-Based Chalcones and 8,9-dihydro-7H-pyrimido[4,5-b][1,4]diazepines as Potential Leads in the Search of Anticancer, Antibacterial and Antifungal Agents” (International Journal of Molecular Sciences, 2024).
# Key:
# Experiment in all cases: cells
# SK-MEL-28 = conditions: Homo sapiens, SK-MEL-28, 48 h; for CC50: read-out: LC50
# HCT-15 = conditions: Homo sapiens, HCT-15, 48 h; for CC50: read-out: LC50
# RXF 393 = conditions: Homo sapiens, RXF 393, 48 h
# NCI-H460 = conditions: Homo sapiens, NCI-H460, 48 h; for CC50: read-out: LC50
# SW-620 = conditions: Homo sapiens, SW-620, 48 h; for CC50: read-out: LC50
# HOP-92 = conditions: Homo sapiens, HOP-92, 48 h; for CC50: read-out: LC50
# K-562 = conditions: Homo sapiens, K562, 48 h; for GI50: K-562, 48 h; for CC50: read-out: LC50
# 786-0 = conditions: Homo sapiens, 786-0, 48 h; for CC50: read-out: LC50
# HCC-2998 = conditions: Homo sapiens, HCC 2998, 48 h; for CC50: read-out: LC50
# SR = conditions: Homo sapiens, 48 h; for CC50: read-out: LC50
# SK-OV-3 = conditions: Homo sapiens, SK-OV-3, 48 h; for CC50: read-out: LC50
# SK-MEL-2 = conditions: Homo sapiens, SK-MEL-2, 48 h; for CC50: read-out: LC50
# NCI/ADR-RES = conditions: Homo sapiens, 48 h; for CC50: read-out: LC50
# MDA-MB-468 = conditions: Homo sapiens, MDA-MB-468, 48 h; for CC50: read-out: LC50
# CAKI-1 = conditions: Homo sapiens, CAKI-1, 48 h; for CC50: read-out: LC50
# SNB-75 = conditions: Homo sapiens, SNB-75, 48 h; for CC50: read-out: LC50
# IGROV1 = conditions: Homo sapiens, IGROV-1, 48 h; for CC50: read-out: LC50
# TK-10 = conditions: Homo sapiens, TK-10, 48 h; for CC50: read-out: LC50
# SK-MEL-5 = conditions: Homo sapiens, SK-MEL-5, 48 h; for CC50: read-out: LC50
# SNB-19 = conditions: Homo sapiens, SNB-19, 48 h; for CC50: read-out: LC50
# A549/ATCC = conditions: Homo sapiens, A549, 48 h; for CC50: read-out: LC50
# KM12 = conditions: Homo sapiens, KM12, 48 h; for CC50: read-out: LC50
# NCI-H522 = conditions: Homo sapiens, NCI-H522, 48 h; for CC50: read-out: LC50
# NCI-H23 = conditions: Homo sapiens, NCI-H23, 48 h
compound,measurement,setting,value
Nc1nc(N)c2c(n1)NC(c1ccc(Cl)cc1)CC(c1ccc(Nc3nc(NCCO)nc(Nc4ccc(Cl)cc4)n3)cc1)=N2 (stereo not drawn) [33e],GI50,SK-MEL-28,1.73 µM
same,CC50,SK-MEL-28,5.61 µM
same,GI50,HCT-15,1.29 µM
same,CC50,HCT-15,6.09 µM
same,GI50,RXF 393,1.54 µM
same,CC50,RXF 393; read-out: LC50,5.73 µM
same,GI50,NCI-H460,1.72 µM
same,CC50,NCI-H460,6.42 µM
same,GI50,SW-620,1.62 µM
same,CC50,SW-620,6.72 µM
same,GI50,HOP-92,1.29 µM
same,CC50,HOP-92,7.54 µM
same,GI50,K-562,0.71 µM
same,CC50,K-562,> 100 µM
same,GI50,786-0,1.55 µM
same,CC50,786-0,5.96 µM
same,GI50,HCC-2998,1.44 µM
same,CC50,HCC-2998,5.36 µM
same,GI50,SR,0.91 µM
same,CC50,SR,> 100 µM
same,GI50,SK-OV-3,14.8 µM
same,CC50,SK-OV-3,58.3 µM
same,GI50,SK-MEL-2,1.45 µM
same,CC50,SK-MEL-2,5.53 µM
same,GI50,NCI/ADR-RES,4.24 µM
same,CC50,NCI/ADR-RES,> 100 µM
same,GI50,MDA-MB-468,1.39 µM
same,CC50,MDA-MB-468,5.6 µM
same,GI50,CAKI-1,5.36 µM
same,CC50,CAKI-1,> 100 µM
same,GI50,SNB-75,1.59 µM
same,CC50,SNB-75,9.94 µM
same,GI50,IGROV1,1.71 µM
same,CC50,IGROV1,7.46 µM
same,GI50,TK-10,10.6 µM
same,CC50,TK-10,60.4 µM
same,GI50,SK-MEL-5,1.48 µM
same,CC50,SK-MEL-5,5.3 µM
same,GI50,SNB-19,1.99 µM
same,CC50,SNB-19,21.4 µM
same,GI50,A549/ATCC,4.12 µM
same,CC50,A549/ATCC,> 100 µM
same,GI50,KM12,3.18 µM
same,CC50,KM12,> 100 µM
same,GI50,NCI-H522,1.56 µM
same,CC50,NCI-H522,6.41 µM
COc1cc(/C=C/C(=O)c2ccc(C)cc2)ccc1Oc1nc(Nc2ccc(F)cc2)nc(N(C)C)n1 [21b],GI50,SK-MEL-28,12.3 µM
same,CC50,SK-MEL-28,79.6 µM
same,GI50,HCT-15,4.73 µM
same,CC50,HCT-15,43.4 µM
same,GI50,NCI-H23,5.52 µM
same,CC50,NCI-H23; read-out: LC50,> 100 µM
same,GI50,NCI-H460,12.1 µM
same,CC50,NCI-H460,> 100 µM
same,GI50,SW-620,2.36 µM
same,CC50,SW-620,20.1 µM
same,GI50,HOP-92,4.57 µM
same,CC50,HOP-92,> 100 µM
same,GI50,K-562,4.2 µM
same,CC50,K-562,> 100 µM
same,GI50,786-0,13.3 µM
same,CC50,786-0,> 100 µM
same,GI50,HCC-2998,20.5 µM
same,CC50,HCC-2998,> 100 µM
same,GI50,SR,3.25 µM
same,CC50,SR,> 100 µM
same,GI50,SK-OV-3,48.9 µM
same,CC50,SK-OV-3,> 100 µM
same,GI50,SK-MEL-2,8.83 µM
same,CC50,SK-MEL-2,> 100 µM
same,GI50,NCI/ADR-RES,5.97 µM
same,CC50,NCI/ADR-RES,> 100 µM
same,GI50,MDA-MB-468,4.64 µM
same,CC50,MDA-MB-468,> 100 µM
same,GI50,CAKI-1,6.43 µM
same,CC50,CAKI-1,> 100 µM
same,GI50,SNB-75,15.4 µM
same,CC50,SNB-75,> 100 µM
same,GI50,IGROV1,13.8 µM
same,CC50,IGROV1,99.1 µM
same,GI50,TK-10,18.2 µM
same,CC50,TK-10,> 100 µM
same,GI50,SK-MEL-5,5.14 µM
same,CC50,SK-MEL-5,78.5 µM
same,GI50,SNB-19,11.1 µM
same,CC50,SNB-19,67.3 µM
same,GI50,A549/ATCC,45.8 µM
same,CC50,A549/ATCC,> 100 µM
same,GI50,KM12,19.3 µM
same,CC50,KM12,> 100 µM
same,GI50,NCI-H522,9.76 µM
same,CC50,NCI-H522,> 100 µM
COc1cc(/C=C/C(=O)c2ccc(C)cc2)ccc1Oc1nc(NCCO)nc(N2CCOCC2)n1 [20b],GI50,SK-MEL-28,2.5 µM
same,CC50,SK-MEL-28,> 100 µM
same,GI50,HCT-15,1.78 µM
same,CC50,HCT-15,> 100 µM
same,GI50,RXF 393,2.07 µM
same,GI50,NCI-H460,2.2 µM
same,CC50,NCI-H460,> 100 µM
same,GI50,SW-620,1.64 µM
same,CC50,SW-620,> 100 µM
same,GI50,HOP-92,8.4 µM
same,CC50,HOP-92,> 100 µM
same,GI50,K-562,1.53 µM
same,CC50,K-562,> 100 µM
same,GI50,786-0,2.18 µM
same,CC50,786-0,> 100 µM
same,GI50,HCC-2998,2.08 µM
same,GI50,SR,1.06 µM
same,CC50,SR,> 100 µM
same,GI50,SK-OV-3,23 µM
same,CC50,SK-OV-3,> 100 µM
same,GI50,SK-MEL-2,8.17 µM
same,CC50,SK-MEL-2,> 100 µM
same,GI50,NCI/ADR-RES,2.08 µM
same,CC50,NCI/ADR-RES,> 100 µM
same,GI50,MDA-MB-468,1.98 µM
same,GI50,CAKI-1,5.02 µM
same,CC50,CAKI-1,> 100 µM
same,GI50,SNB-75,> 100 µM
same,CC50,SNB-75,> 100 µM
same,GI50,IGROV1,3.1 µM
same,CC50,IGROV1,> 100 µM
same,GI50,TK-10,> 100 µM
same,CC50,TK-10,> 100 µM
same,GI50,SK-MEL-5,2 µM
same,GI50,SNB-19,2.45 µM
same,CC50,SNB-19,> 100 µM
same,GI50,A549/ATCC,9.47 µM
same,CC50,A549/ATCC,> 100 µM
same,GI50,KM12,1.85 µM
same,GI50,NCI-H522,1.56 µM
